Data: publication PMC9917816, “STS1 and STS2 Phosphatase Inhibitor Baicalein Enhances the Expansion of Hematopoietic and Progenitor Stem Cells and Alleviates 5-Fluorouracil-Induced Myelosuppression” (International Journal of Molecular Sciences, 2023)

Columns and labels:
[1] = target: T1, STS1-HP (STS1 histidine phosphatase domain) (Homo sapiens, UniProt Q8TF42); experiment: capillary electrophoresis, migration time shift; assay type: binding; conditions: 20 mM PBS, pH 7.0, 20 kV, UV 230 nm
T1 construct: gene UBASH3B
T1 sequence (Q8TF42 380-649 limits assumed): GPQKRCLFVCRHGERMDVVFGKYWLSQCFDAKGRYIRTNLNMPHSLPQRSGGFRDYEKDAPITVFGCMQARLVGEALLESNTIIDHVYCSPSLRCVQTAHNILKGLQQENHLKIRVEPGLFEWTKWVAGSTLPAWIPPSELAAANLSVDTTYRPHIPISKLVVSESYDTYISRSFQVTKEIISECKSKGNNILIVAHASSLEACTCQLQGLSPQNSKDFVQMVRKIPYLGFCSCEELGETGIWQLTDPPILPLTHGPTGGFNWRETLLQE

[2] = target: T2, STS2-HP (STS2 histidine phosphatase domain) (Homo sapiens, UniProt P57075); experiment: pNPP phosphatase inhibition assay, absorbance at […] nm; assay type: biochemical; conditions: read-out: % inhibition at 10 μg/mL
T2 construct: gene UBASH3A
T2 sequence (P57075 385-661 limits assumed): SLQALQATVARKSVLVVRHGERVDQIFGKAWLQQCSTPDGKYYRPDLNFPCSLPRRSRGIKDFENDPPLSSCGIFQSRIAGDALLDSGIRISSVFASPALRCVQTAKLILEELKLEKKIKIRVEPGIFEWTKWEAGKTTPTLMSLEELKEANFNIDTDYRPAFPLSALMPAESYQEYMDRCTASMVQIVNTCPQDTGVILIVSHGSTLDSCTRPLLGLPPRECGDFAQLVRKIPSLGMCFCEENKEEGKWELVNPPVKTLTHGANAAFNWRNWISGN

[3] = target: T1, STS1-HP (STS1 histidine phosphatase domain); experiment: as above; assay type: biochemical; conditions: pNPP substrate, pH 7.2, 25 °C, 10 min; name misprinted as baicalin in b9

In the case of `O=c1cc(-c2ccccc2)oc2cc(O)c(O)c(O)c12` [baicalein], the “capillary electrophoresis, migration time shift” value [1] is reported as “migration times of STS1 and STS2 proteins were markedly delayed when BC was added”, the inhibition at 10 µg/mL [2] is reported as 13.8% and the “% inhibition at 10 μg/mL” value [3] is reported as “(BC) could significantly inhibit the phosphatase activity of STS1 in vitro”.
